{"source": "patent US20140323573A1", "about": "“METABOLIZABLE SALTS AND USE THEREOF IN DIAGNOSTICS AND THERAPY” (priority 2011, published 2014)", "key": {"[1]": {"test": "Osmotic coefficient and osmolality of solutions", "assay_type": "physicochemical", "excerpt": "a) Osmotic Coefficients of Compounds According to the Invention and not According to the Invention"}, "[2]": {"details": "cited from earlier work; for pK-values (first value) / pK-values (second value) / pK-values (third value): Table I, 37° C."}, "[3]": {"details": "0.1 molar solution, (literature); cited from earlier work"}, "[4]": {"test": "Buffer properties / acid-base data of 0.1 molar salt solutions (37° C.)", "details": "0.1 molar solution; for NaOH ΔpH 7.2-7.6: NaOH necessary for ΔpH of 7.2-7.6; for Titr. on 7.4: NaOH necessary to set pH 7.4; for β (at 7.4) buffer capacity: calculated from NaOH for ΔpH 7.2-7.6", "description": "NaOH mmol/l for ΔpH of 7.2-7.6: how much NaOH in mmol/l is necessary for that ΔpH.\n2. β (mmol/l/pH): the buffer capacity calculated therefrom at pH 7.40.\nTitr on 7.4 (mmol/l): how much NaOH is necessary to set a pH-value of 7.4.\nIf a physiological pH-value of 7.4 is to be set in a 0.1 molar solution then the corresponding additives are specified in the column Titration pH=7.4. It is therefore specified how much NaOH (mmol/l) is to be added to set that pH-value."}, "[5]": {"test": "Feed of bicarbonate: arginine / arginine acetate solution equilibrated with CO2", "assay_type": "physicochemical", "details": "ionic strength 160 mmol/l and 37° C.", "protocol": "If a solution with 48 mmol/l arginine is mixed with 24 mmol/l acetic acid that gives a mixture respectively comprising 24 mmol/l arginine and arginine acetate with a pH-value of about 8.6. That pH-value corresponds to the effective pK value of arginine (ionic strength 160 mmol/l and 37° C.). If that solution is necessarily equilibrated after infusion in the patient to a pCO2 of about 40 mmHg a maximum of 24 mmol/l arginine HCO3 will occur. Thus the physiological values of about 24 mmol/l HCO3 and a pH-value of about 7.4 will occur (for comparison arginine equilibration with pure CO2 in Table 1)."}}, "note": "Counter-ions that a name gives are not always drawn. Like-named read-outs stand apart in the source and are kept apart here."}
{"molecule": "Cl.N=C(N)NCCC[C@H](N)C(=O)O", "note": "[Arg HCl, arginine hydrochloride]", "values": [{"measurement": "Osmot. valence", "setting": "[1]", "result": 2}, {"measurement": "Osmot. coefficient", "setting": "[1]; 0.1 molar solution", "result": 0.895}]}
{"molecule": "O=C(O)O", "note": "[HCO3^−]", "values": [{"measurement": "pK", "setting": "[2]", "result": 6.1}]}
{"molecule": "O=C(O)CC(O)(CC(=O)O)C(=O)O", "note": "[citric acid]", "values": [{"measurement": "Osmot. valence", "setting": "[1]", "result": 3}, {"measurement": "Osmot. coefficient", "setting": "[1]; 0.1 molar solution", "result": 0.555}, {"measurement": "pK-values (first value)", "setting": "[2]", "result": 3.0}, {"measurement": "pK-values (second value)", "setting": "[2]", "result": 4.4}, {"measurement": "pK-values (third value)", "setting": "[2]", "result": 5.8}]}
{"molecule": "NC(CO)(CO)CO", "note": "[Tris]", "values": [{"measurement": "pK", "setting": "[2]", "result": 8.2}]}
{"molecule": "O=C([O-])O.[Na+]", "note": "[NaHCO3]", "values": [{"measurement": "Osmot. valence", "setting": "[1]", "result": 2}, {"measurement": "Osmot. coefficient", "setting": "[1]; 0.1 molar solution, (assumed)", "result": 0.926}]}
{"molecule": "O=C(O)CC(O)C(=O)O", "note": "(stereo not shown) [malic acid]", "values": [{"measurement": "pK-values (first value)", "setting": "[2]", "result": 3.5}, {"measurement": "pK-values (second value)", "setting": "[2]", "result": 4.7}]}
{"molecule": "O=S(=O)(O)CCN1CCN(CCO)CC1", "note": "[Hepes]", "values": [{"measurement": "pK", "setting": "[2]", "result": 7.35}]}
{"molecule": "CC(=O)O", "note": "[acetic acid]", "values": [{"measurement": "pK-values (first value)", "setting": "[2]", "result": 4.6}]}
{"molecule": "[Cl-].[Na+]", "note": "[NaCl]", "values": [{"measurement": "Osmot. valence", "setting": "[1]", "result": 2}, {"measurement": "Osmot. coefficient", "setting": "[3]", "result": 0.926}]}
{"molecule": "CC(=O)O.N=C(N)NCCC[C@H](N)C(=O)O", "note": "[Arg acetate, arginine acetate]", "values": [{"measurement": "pK", "setting": "[2]", "result": 4.6}, {"measurement": "pH", "setting": "[4]", "result": 5.99}, {"measurement": "NaOH ΔpH 7.2-7.6", "setting": "[4]", "result": 2.8, "unit": "mmol/L"}, {"measurement": "Titr. on 7.4", "setting": "[4]", "result": 7.3, "unit": "mmol/L"}, {"measurement": "β (at 7.4) buffer capacity", "setting": "[4]", "result": 7.0, "unit": "mmol/l/pH"}]}
{"molecule": "N=C(N)NCCC[C@H](N)C(=O)O", "note": "[Arginine, arginine]", "values": [{"measurement": "Osmot. valence", "setting": "[1]", "result": 1}, {"measurement": "Osmot. coefficient", "setting": "[1]; 0.1 molar solution", "result": 0.980}, {"measurement": "osmolality", "setting": "[1]; 0.1 molar solution", "result": 98, "unit": "mosmol/kg H2O"}, {"measurement": "effective pK value", "setting": "[5]", "result": "about 8.6"}, {"measurement": "pK-values (first value)", "setting": "[2]", "result": 2.0}, {"measurement": "pK-values (second value)", "setting": "[2]", "result": 9.0}, {"measurement": "pK-values (third value)", "setting": "[2]", "result": 12.1}, {"measurement": "pH", "setting": "[4]", "result": 10.26}]}
{"molecule": "O=C(O)CC(O)(CC(=O)O)C(=O)O", "note": "[Na3 citrate]", "values": [{"measurement": "Osmot. valence", "setting": "[1]", "result": 4}, {"measurement": "Osmot. coefficient", "setting": "[1]; 0.1 molar solution", "result": 0.681}]}
{"molecule": "NCCCC[C@H](N)C(=O)O", "note": "[Lysine, lysine]", "values": [{"measurement": "Osmot. valence", "setting": "[1]", "result": 1}, {"measurement": "Osmot. coefficient", "setting": "[1]; 0.1 molar solution", "result": 1.000}, {"measurement": "pK-values (first value)", "setting": "[2]", "result": 2.2}, {"measurement": "pK-values (second value)", "setting": "[2]", "result": 8.9}, {"measurement": "pK-values (third value)", "setting": "[2]", "result": 10.3}, {"measurement": "pH", "setting": "[4]", "result": 9.55}]}
{"molecule": "O=C(O)CC(O)(CC(=O)O)C(=O)O", "note": "[K3 citrate]", "values": [{"measurement": "Osmot. valence", "setting": "[1]", "result": 4}, {"measurement": "Osmot. coefficient", "setting": "[1]; 0.1 molar solution", "result": 0.681}]}
{"molecule": "N", "note": "[NH4^+]", "values": [{"measurement": "pK", "setting": "[2]", "result": 9.0}]}
{"molecule": "N=C(N)NCCC[C@H](N)C(=O)O.O=C(O)O", "note": "[Arg HCO3]", "values": [{"measurement": "Osmot. valence", "setting": "[1]", "result": 2}, {"measurement": "Osmot. coefficient", "setting": "[1]; 0.1 molar solution", "result": 0.833}, {"measurement": "Osmot. coefficient", "setting": "[1]; 0.2 m, 100% CO2 at 37° C.", "result": 0.2, "unit": "m 0.833 100% CO2 at 37 °C"}, {"measurement": "Osmot. coefficient", "setting": "[1]; 0.3 m, 100% CO2 at 37° C.", "result": 0.3, "unit": "m 0.763 100% CO2 at 37 °C"}]}
{"molecule": "O=C(O)O", "note": "[carbonic acid]", "values": [{"measurement": "pK-values (first value)", "setting": "[2]", "result": 6.1}]}
{"molecule": "CC(=O)O.NCCCC[C@H](N)C(=O)O", "note": "[Lysine Acetate, lysine acetate]", "values": [{"measurement": "pH", "setting": "[4]", "result": 5.99}, {"measurement": "NaOH ΔpH 7.2-7.6", "setting": "[4]", "result": 2.5, "unit": "mmol/L"}, {"measurement": "Titr. on 7.4", "setting": "[4]", "result": 6.8, "unit": "mmol/L"}, {"measurement": "β (at 7.4) buffer capacity", "setting": "[4]", "result": 6.3, "unit": "mmol/l/pH"}]}
{"molecule": "O=C(O)CC(O)(CC(=O)O)C(=O)O", "note": "[Lys3 citrate, tri-lysine citrate]", "values": [{"measurement": "Osmot. coefficient", "setting": "[1]; 0.1 molar solution", "result": 0.715}, {"measurement": "pH", "setting": "[4]", "result": 6.88}, {"measurement": "NaOH ΔpH 7.2-7.6", "setting": "[4]", "result": 5.9, "unit": "mmol/L"}, {"measurement": "Titr. on 7.4", "setting": "[4]", "result": 5.8, "unit": "mmol/L"}, {"measurement": "β (at 7.4) buffer capacity", "setting": "[4]", "result": 14.8, "unit": "mmol/l/pH"}]}
